Laboratory results reported in patent US20240417412A1, “HETEROCYCLIC COMPOUNDS AND METHODS OF USE” (AMGEN INC., priority 2022, published 2024).
Like-named read-outs stand apart in the source and are kept apart here.

Legend:
p-ERK (AsPC-1 cells) = assay: Phospho-ERK1/2 MSD Assay; format: cell-based
Method: Sixteen hours prior to compound treatment, AsPC-1 cells were seeded in 96-well cell culture plates at a density of 25,000 cells/well and incubated at 37° C., 5% CO2. A compound dose-response titration was diluted in growth media, added to appropriate wells of a cell culture plate, and then incubated at 37° C., 5% CO2 for 2 hours. […] Phosphorylation of ERK1/2 in compound-treated lysates was assayed using Phospho-ERK1/2 Whole Cell Lysate kits (Meso Scale Discovery K151DWD) according to the manufacturer's protocol. Assay plates were read on a Meso Scale Discovery Sector Imager 6000, and data were analyzed using a 4-parameter logistic model to calculate IC50 values.

KRAS G12D [1] = target: KRAS G12D (Homo sapiens, UniProt P01116, C118A/G12D); assay: KRAS G12D Coupled Nucleotide Exchange Assay; format: biochemical; settings: GDP-bound KRAS G12D/C118A, 2 hours pre-incubation, SOS-mediated nucleotide exchange, AlphaScreen
Method: The assay plates were then read on a PerkinElmer EnVision Multilabel Reader, using AlphaScreen® technology, and data were analyzed using a 4-parameter logistic model to calculate IC50 values.

KRAS G12D [2] = target: KRAS G12D (Homo sapiens, UniProt P01116, G12D); assay: KRAS G12D TR-FRET Assay; settings: His-tagged KRAS G12D, biotinylated KRPep-2d, read-out: KRAS G12D Binding IC50
Method: The plate was incubated for 30 minutes at room temperature. Biotinylated KRPep-2d substrate (Amgen) was diluted to 20 nM in Assay Buffer and 2 uL was added to all wells and incubated for 1 hour at room temperature. Detection Reagent (0.4 nM LANCE Eu-W1024 Anti-6×His (Perkin Elmer AD0401), 5 nM streptavidin-d2 (Cisbio 610SADLA)) was prepared in Assay Buffer, then 4 μL was added to the plate and incubated for 1 hour at room temperature.

[3] = Homo sapiens, ASPC1, 2 h, read-out: 2 h p-ERK (AsPC-1 cells), IC50 (μM), AsPC-1 cells, 2 hours compound treatment
[4] = read-out: 2 h p-ERK (AsPC-1 cells), IC50, AsPC-1 cells, 2 hours compound treatment

Sequence of KRAS G12D (Homo sapiens, UniProt P01116, C118A/G12D) (P01116 1-169 isoform P01116-2 G12D/C118A): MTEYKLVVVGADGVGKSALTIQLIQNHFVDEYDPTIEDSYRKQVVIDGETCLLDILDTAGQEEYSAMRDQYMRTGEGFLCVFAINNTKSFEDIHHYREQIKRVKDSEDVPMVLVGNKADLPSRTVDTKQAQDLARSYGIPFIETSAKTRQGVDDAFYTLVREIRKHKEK
Sequence of KRAS G12D (Homo sapiens, UniProt P01116, G12D) (P01116 1-188 isoform P01116-2 G12D): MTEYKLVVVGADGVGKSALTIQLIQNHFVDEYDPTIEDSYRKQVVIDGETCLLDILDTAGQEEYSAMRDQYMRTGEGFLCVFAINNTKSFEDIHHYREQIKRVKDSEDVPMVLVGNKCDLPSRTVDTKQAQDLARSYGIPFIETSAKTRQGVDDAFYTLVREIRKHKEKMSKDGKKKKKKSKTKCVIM

IC50 (p-ERK (AsPC-1 cells); [3]) | IC50 (KRAS G12D [1]) | IC50 (KRAS G12D [2]) | IC50 (p-ERK (AsPC-1 cells); [4]) | SMILES
0.164 µM | 1 nM | 1 nM | – | Oc1cc(Cl)c(C2CC2)c(-c2ncc3c(N4CCCC5(CC(O)C5)C4)nc(OC[C@@]45CCCN4C[C@H](F)C5)nc3c2F)c1 (single isomer, unassigned) [Example 14]
0.123 µM | 1 nM | 1 nM | – | C#Cc1c(F)ccc2cc(O)cc(-c3ncc4c(N5CCCC6(CNC(=O)O6)C5)nc(OC[C@@]56CCCN5C[C@H](F)C6)nc4c3F)c12 (single isomer, unassigned) [Example 17]
0.31 µM | 1 nM | 1 nM | – | O=C1NCC2(CCCN(c3nc(OC[C@@]45CCCN4C[C@H](F)C5)nc4c(F)c(-c5cc(O)cc6ccc(F)c(F)c56)ncc34)C2)O1 (single isomer, unassigned) [Example 18]
0.011 µM | 3 nM | 2 nM | – | CCc1cccc2cc(O)cc(-c3ncc4c(N5CCCC6(CCO6)C5)nc(OC[C@@]56CCCN5C[C@H](F)C6)nc4c3F)c12 (single isomer, unassigned) [Example 23]
0.009 µM | 2 nM | 1 nM | – | Oc1cc(-c2ncc3c(N4CCCC5(CCO5)C4)nc(OC[C@@]45CCCN4C[C@H](F)C5)nc3c2F)c2c(F)c(F)ccc2c1 (single isomer, unassigned) [Example 24]
0.043 µM | 1 nM | 1 nM | – | C#Cc1c(F)ccc2cc(O)cc(-c3ncc4c(N5CCCC6(CCO6)C5)nc(OC[C@@]56CCCN5C[C@H](F)C6)nc4c3F)c12 (single isomer, unassigned) [Example 25]
– | 12 nM | 9 nM | 2.19 µM | CCc1c(F)ccc2cc(O)cc(-c3ncc4c(N5CCCC6(CCS(=O)(=O)C6)C5)nc(OC[C@@]56CCCN5C[C@H](F)C6)nc4c3F)c12 (single isomer, unassigned) [Example 34]
– | 3 nM | 2 nM | 0.06 µM | CCc1c(F)ccc2cc(O)cc(-c3ncc4c(N5CCCC6(CCS(=O)(=O)C6)C5)nc(OC[C@@]56CCCN5C[C@H](F)C6)nc4c3F)c12 (single isomer, unassigned) [Example 35]
1.11 µM | 2 nM | 2 nM | – | C#Cc1c(F)ccc2cc(O)cc(-c3ncc4c(N5CCCC6(CCS(=O)(=O)C6)C5)nc(OC[C@@]56CCCN5C[C@H](F)C6)nc4c3F)c12 (single isomer, unassigned) [Example 36]
0.161 µM | 5 nM | 3 nM | – | CCc1c(F)ccc2cc(O)cc(-c3ncc4c(N5CCCC6(CNC6=O)C5)nc(OC[C@@]56CCCN5C[C@H](F)C6)nc4c3F)c12 (single isomer, unassigned) [Example 45]
0.576 µM | 13 nM | 7 nM | – | CCc1c(F)ccc2cc(O)cc(-c3ncc4c(N5CCCC6(CCC6O)C5)nc(OC[C@@]56CCCN5C[C@H](F)C6)nc4c3F)c12 (single isomer, unassigned) [Example 49]
– | 6 nM | 4 nM | 0.343 µM | CCc1c(F)ccc2cc(O)cc(-c3ncc4c(N5CCCC6(C5)CC(C)(O)C6)nc(OC[C@@]56CCCN5C[C@H](F)C6)nc4c3F)c12 (single isomer, unassigned) [Example 56]
– | 10 nM | 6 nM | 0.131 µM | CCc1c(F)ccc2cc(O)cc(-c3ncc4c(N5CCCC6(C5)CC(C)(O)C6)nc(OC[C@@]56CCCN5C[C@H](F)C6)nc4c3F)c12 (single isomer, unassigned) [Example 57]
0.003 µM | 1 nM | 1 nM | – | Oc1cc(-c2ncc3c(N4CCC[C@]5(CCO5)C4)nc(OC[C@@]45CCCN4C[C@H](F)C5)nc3c2F)c2c(Cl)c(F)ccc2c1 (single isomer, unassigned) [Example 58]
0.006 µM | 2 nM | 3 nM | – | Oc1cc(-c2ncc3c(N4CCCC5(CCO5)C4)nc(OC[C@@]45CCCN4C[C@H](F)C5)nc3c2F)c2c(Cl)cccc2c1 (single isomer, unassigned) [Example 59]
